Experimental data from patent US20080311681A1, “Antibody Binding Affinity Ligands” (priority 2004, published 2008).
Where “and” joins values, the source holds several entries; their conditions need not be identical. Identical values can stand only once.

Columns and labels:
[1] = test system: Fc fragment of an antibody; assay: Incubation of bead-bound ligands with labelled Fc fragment, fluorescence on beads; format: binding; design: key: 0 indicates no fluorescence; 3 indicates the strongest level of fluorescence observed; conditions: Oregon Green labelled Fc fragment, ligands on PEGA1900 beads, overnight at room temperature, arbitrary scale from 0 to 3, judged by eye
Procedure: The Fc fragment of an antibody was purified by dialysis in bicarbonate buffer (pH 8). The purified Fc fragment was treated with Oregon Green dye (50×) in DMF and kept for 1 hour at room temperature. The reaction was stopped by adding hydroxylamine (1.5 M, pH 8.5). The labelled polypeptide was purified by dialysis in bicarbonate buffer (pH 8).
The beads (10 mg) were washed with water (10×), bicarbonate buffer (pH 8, 10×), and were suspended in bicarbonate buffer for 1 h. The labelled polypeptide was then added to the resin and kept overnight at room temperature. The resin was washed with bicarbonate buffer (pH 8) and water.
The fluorescence on the beads was recorded by using a fluorescence microscope and a digital camera. A mercury lamp equipped with an emission filter provided excitation in the visible blue range. The images of the beads were recorded in water.
The below table lists the ligands and the corresponding apparent level of fluorescence determined by simply looking at the samples and comparing the apparent colour intensities between samples. On an arbitrary scale from 0 to 3, where 0 indicates no fluorescence and 3 indicates the strongest level of fluorescence observed.

monoclonal antibody = assay: Chromatographic evaluation of ligands coupled on Fractogel (packed column, load, wash, elution, regeneration); format: binding; conditions: not optimized operation conditions
Procedure: The new resins were assessed in packed mode. 1 mL of each resin was packed into an HR5 chromatography column (GE Healthcare) applying standard conditions.
Before loading the matrix with the monoclonal antibody, the column was equilibrated with 6 column volumes equilibration buffer containing 50 mM Na-phosphate (pH 7.0; cond. 9 mS cm^−1). After equilibration a monoclonal antibody solution in equilibration buffer (protein conc. 1.14 mg/mL) was loaded to the column. Subsequently, the column was washed with 6 column volumes of equilibration buffer and eluted with 6 column volumes of elution buffer 1 (25 mM sodium acetate pH 5.5; cond. 1.8 mS cm^−1) and 6 column volumes of elution buffer 2 (25 mM sodium acetate buffer pH 3.8; 0.5 mS cm^−1). The column was stored in […] ethanol. Afterwards, the matrix was regenerated with 40 mM phosphoric acid and 20 mM sodium hydroxid. The flow rate for equilibration, load and wash was 60 cm/h, elution and regeneration was performed at a flow rate of 30 cm/h.

| Substance | mark (apparent level of fluorescence) [1] | mAb in the flow through (in words) (monoclonal antibody) | mark (apparent level of fluorescence) ([1]; listed as L1#16) |
| --- | --- | --- | --- |
| 3HBA-(L)Arg-(L)Pro-Gly [LII#44] | 2 | – | – |
| 3HBA-(L)Pro-(L)Arg-Gly [LII#45] | 2 | – | – |
| 4HBA-(L)Arg-(L)Pro-Gly [LII#46] | 2 | – | – |
| 4HBA-(L)Pro-(L)Arg-Gly [LII#47] | 2 | – | – |
| D-Lys-INA-(L)Arg-Gly [LI#41] | 2 | – | – |
| D-Phe-(L)Arg-(L)Arg-Gly [LI#16] | 2 | nothing was detected in the flow through | 3 |
| D-Pro-PPC-(L)Arg-Gly [L1#21] | 2 | – | – |
| DBHBA-(L)Arg-(L)Asn-Gly [LII#54] | 3 | – | – |
| DBHBA-(L)Asn-(L)Arg-Gly [LII#55] | 3 | only limited material is in the flow through | – |
| INA-(L)Arg-D-Lys-Gly [LI#44] | 2 | – | – |
| INA-D-Phe-PPC-Gly [LI#12] | 2 | – | – |
| L-Arg-(L)Arg-D-Lys-Gly [LI#27] | 2 | – | – |
| L-Arg-(L)Arg-D-Phe-Gly [LI#18] | 2 | – | – |
| L-Arg-D-Lys-(L)Arg-Gly [LI#26] | 2 | – | – |
| L-Arg-D-Phe-(L)Arg-Gly [LI#17] | 3 and 2 | – | – |
| L-Arg-D-Pro-PPC-Gly [LI#24] | 2 | – | – |
| PPC-(L)Arg-D-Pro-Gly [LI#20] | 2 | – | – |
| PPC-Ahx-PPC-Gly [LI#53] | 2 | – | – |
| PPC-Aib-PPC-Gly [LI#14] | 2 | – | – |
| PPC-D-Leu-PPC-Gly [L1#50] | 3 | – | – |
| PPC-D-Pro-(L)Arg-Gly [LI#19] | 3 | – | – |
| PPC-Nle-PPC-Gly [LI#56] | 2 | – | – |
| SAA-(L)Arg-(L)Pro-Gly [LII#48] | 3 | – | – |
| SAA-(L)Pro-(L)Arg-Gly [LII#49] | 3 | – | – |
